These results are taken from patent US10823735B2, “Monoclonal antibody for predicting tamoxifen response in breast cancer patients” (The University of Hong Kong, priority 2015, dated 2020).

Assay [1] has as its system ZR75-BQ323636.1 and MCF7-BQ323636.1. Briefly: MTT assay, tamoxifen response of BQ323636.1 overexpressing cell lines. Type of assay: cell-based, Human. The conditions noted are these: BQ323636.1 overexpression versus empty vector cell lines. On the procedure:
Cell lines—Human breast cancer cell lines MCF7 and ZR-75-1 were purchased from American Type Culture Collection and were re-authenticated by short tandem repeat profiling (Zhang, Gong et al. 2013). MCF7 was cultured in Dulbecco's Modified Eagle's Medium supplemented with 10% FBS and 1% penicillin/streptomycin and ZR-75-1 was cultured in Improved Minimum Essential Medium (IMEM) supplemented with 5% FBS and 1% penicillin/streptomycin. LCC2 and AK-47 are the two tamoxifen resistant cell lines derived from MCF7 and ZR-75-1, respectively and were kindly provided by Dr. Robert Clarke (Georgetown University Medical School, Washington, D.C.) (Wong, Dai et al. 2006) and have been used in our previous study (Zhang, Gong et al. 2013). LCC2 and AK-47 were both cultured in IMEM supplemented with 5% charcoal-stripped FBS and 1% penicillin/streptomycin. All the cell lines used in this study have been passaged and kept fewer than 6 months after the re-authentication or thawing. […]
MTT assay—Cells were seeded at a density of 6×10^3 cells/well. […] Extinction of the samples was measured by the Infinite 200 microtiter plate reader (Tecan) at 570 nm with a reference wavelength at 750 nm. Background MTT readings were subtracted from the samples. […]

Assay [2] concerns MCF7-vector. Briefly: Orthotopic nude mouse model, MCF7-vector. Type of assay: in vivo, nude mice. The following applies: mammary fat pad, daily subcutaneous injection in peanut oil. On the procedure:
(§1) Orthotopic mouse model—The cell lines mixed with Matrigel (BD Biosciences) at the ratio of 1:1 were inoculated into the abdominal mammary fat pad of the 5 to 6 week old female nude mice. When the tumor were palpable, the mice were randomized into treatment and control groups where treatment groups received daily subcutaneous injection of tamoxifen (Sigma) dissolved in peanut oil (Sigma) and the control groups received subcutaneous injection of the solvent only. Tumor sizes were measured by caliper and tumor volume was calculated as (length*width*width)/2. Tumor growth rate was expressed as the % of tumor volume change calculated as the tumor volume measured at the indicated time point normalized against the tumor volume at day 0*100%. This protocol has been reviewed and approved by Committee on the Use of Live Animals in Teaching and Research (CULATR), the University of Hong Kong (CULATR No.: 3259-14)
(§2) We further validated the effect of BQ323636.1 overexpression in conferring tamoxifen resistance using a nude mouse model. […] Tumor sizes were measured by caliper and tumor volume was calculated as (length*width*width)/2. Tumor growth rate was expressed as the % of tumor volume change calculated as the tumor volume measured at the indicated time point normalized against the tumor volume at day 0*100%. […]

Assay [3] deals with ZR75-BQ323636.1. Briefly: Orthotopic nude mouse model, ZR75-BQ323636.1. In kind it is in vivo, nude mice. The following applies: ZR75-BQ323636.1, mammary fat pad, daily subcutaneous injection in peanut oil. On the procedure:
as §1, §2

In assay [4] the test system is MCF7-BQ323636.1. Briefly: Orthotopic nude mouse model, MCF7-BQ323636.1. Type of assay: in vivo, nude mice. The conditions noted are these: MCF7-BQ323636.1, mammary fat pad, daily subcutaneous injection in peanut oil. On the procedure:
as §1, §2

The test system of assay [5] is ZR75-vector. Briefly: Orthotopic nude mouse model, ZR75-vector. Type of assay: in vivo, nude mice. The conditions noted are these: mammary fat pad, daily subcutaneous injection in peanut oil. Here is the method:
as §1, §2

As to `CC/C(=C(\c1ccccc1)c1ccc(OCCN(C)C)cc1)c1ccccc1` [tamoxifen], in assay [1], the “tamoxifen resistance in MTT assay” value is “induced the tamoxifen resistance”. Moreover, the “tumor growth versus solvent control group” value in assay [2] is reported as “significantly reduced tumor growth”; in assay [3], “no change of tumor growth”; in assay [4] it was “no change of tumor growth”; in assay [5], “significantly reduced tumor growth”.
